Assay results as given in patent US8729273B2, “Compounds effective as xanthine oxidase inhibitors, method for preparing the same, and pharmaceutical composition containing the same” (LG Life Sciences Ltd., priority 2009, dated 2014).
pIC50: −log10 of the molar value.

system: plasma uric acid; assay: In vivo xanthine oxidase assay: plasma uric acid-lowering activity in oxonic acid-induced high-uric acid model; parameters: species or system rat; settings: male SD rats, potassium oxonate 300 mg/kg i.p., compound 10 mg/kg oral, plasma at 1 h after oral administration; normal group = 100% inhibition, control group = 0%
Procedure: Uric Acid-Lowering Activity in Plasma and Liver (Oxonic Acid-Induced High-Uric Acid Model in Rat)
In order to estimate the plasma uric acid-lowering ability of the compounds according to the present invention, experiments were carried out using oxonic acid-induced high-uric acid model.
300 mg/kg of potassium oxonate suspended in 0.8% carboxymethylcellulose solution was intraperitoneally administered to male SD rats of body weight 200 g (control group, compound administration group). 1 h after the oxonic acid administration, 10 mg/kg of test compounds dissolved in polyethyleneglycol 400:ethanol (2:1) solution were orally administered (compound administration group), and after the time period of 1 h blood was sampled. Plasma was separated from thus-obtained blood, and the uric acid concentration in the plasma was quantified utilizing LC-MS/MS. FIGS. 1 and 2 represent the results of plasma uric acid concentration and inhibition rate of plasma uric acid, respectively.
Through the present experiment, excellent plasma uric acid-lowering activity of the compounds according to the present invention was verified.

| SMILES | uric acid inhibition rate [%] |
| --- | --- |
| CC(C)n1cc(C#N)c2cc(-n3cc(C(=O)O)cn3)ccc21 [Example 1, 1-(3-cyano-1-isopropyl-indol-5-yl)pyrazole-4-carboxylic acid] | 60 |

target: Xanthine oxidase originated from bovine milk (Bos taurus (Bovine), UniProt P80457); assay: Xanthine oxidase inhibition activity (initial velocity of uric acid formation); type: biochemical; settings: 3 min incubation with test compound, substrate xanthine
Sequence (P80457 whole entry): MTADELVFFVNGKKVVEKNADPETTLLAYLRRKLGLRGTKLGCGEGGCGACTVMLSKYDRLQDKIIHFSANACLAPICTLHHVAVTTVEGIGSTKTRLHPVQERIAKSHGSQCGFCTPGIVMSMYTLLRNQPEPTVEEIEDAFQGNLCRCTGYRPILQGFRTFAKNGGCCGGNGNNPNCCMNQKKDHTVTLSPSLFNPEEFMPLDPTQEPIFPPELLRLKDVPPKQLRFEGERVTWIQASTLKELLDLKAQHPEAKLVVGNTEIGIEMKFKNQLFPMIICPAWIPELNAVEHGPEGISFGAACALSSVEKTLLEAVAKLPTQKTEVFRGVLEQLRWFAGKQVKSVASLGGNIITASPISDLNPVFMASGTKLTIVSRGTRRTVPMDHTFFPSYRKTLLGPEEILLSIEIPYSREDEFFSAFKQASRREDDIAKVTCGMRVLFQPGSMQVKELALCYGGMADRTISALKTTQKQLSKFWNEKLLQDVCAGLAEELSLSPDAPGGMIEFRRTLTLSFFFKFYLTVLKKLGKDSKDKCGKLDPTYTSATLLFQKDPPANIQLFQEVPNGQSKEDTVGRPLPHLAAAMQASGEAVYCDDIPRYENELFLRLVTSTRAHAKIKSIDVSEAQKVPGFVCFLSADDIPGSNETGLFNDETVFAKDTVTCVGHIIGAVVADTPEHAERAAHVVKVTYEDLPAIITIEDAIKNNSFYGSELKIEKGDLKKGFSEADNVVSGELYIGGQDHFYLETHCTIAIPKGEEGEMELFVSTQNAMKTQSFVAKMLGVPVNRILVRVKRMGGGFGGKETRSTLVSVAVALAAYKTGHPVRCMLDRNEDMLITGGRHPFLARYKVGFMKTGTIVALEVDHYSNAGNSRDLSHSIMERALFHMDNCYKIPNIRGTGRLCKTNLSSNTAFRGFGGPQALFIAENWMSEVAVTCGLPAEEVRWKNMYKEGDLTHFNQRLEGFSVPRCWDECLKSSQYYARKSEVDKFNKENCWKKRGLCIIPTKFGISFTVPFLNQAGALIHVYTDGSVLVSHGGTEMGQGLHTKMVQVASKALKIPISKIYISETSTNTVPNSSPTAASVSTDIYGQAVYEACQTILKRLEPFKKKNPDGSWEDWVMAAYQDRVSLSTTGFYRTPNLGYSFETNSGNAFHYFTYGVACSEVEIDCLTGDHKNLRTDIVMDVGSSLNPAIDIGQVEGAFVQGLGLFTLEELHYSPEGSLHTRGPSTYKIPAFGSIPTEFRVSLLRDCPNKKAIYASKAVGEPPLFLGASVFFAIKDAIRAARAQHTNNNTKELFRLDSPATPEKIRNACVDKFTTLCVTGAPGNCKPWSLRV
Procedure: Xanthine oxidase originated from bovine milk was incubated for 3 min with test compounds, and the initial velocity of uric acid formation was determined by adding the substrate xanthine. The initial velocity of test compound at each concentration was converted to % inhibition rate on the basis of the initial velocity under the absence of the inhibitor, thereby the inhibitor concentration needed for 50% inhibition was calculated as IC50 values. According to the present invention, compounds which show IC50 values against xanthine oxidase from bovine milk in the level of nM were developed.

| SMILES | pIC50 |
| --- | --- |
| CC(C)n1cc(C#N)c2cc(-n3cnc(C(=O)O)n3)ccc21 [Example 18, 1-(3-cyano-1-isopropyl-indol-5-yl)-1,2,4-triazole-3-carboxylic acid] | 7.89 |
| CC(CF)n1cc(C#N)c2cc(-c3cc(C(=O)O)ccn3)ccc21 (centres unmarked) [Example 24, 2-[3-cyano-1-(1-fluoropropan-2-yl)-indol-5-yl]isonicotinic acid] | 8.21 |
| N#Cc1cc(-n2cc(C(=O)O)cn2)cc2cc(-c3ccccc3)[nH]c12 [Example 28, 1-(7-cyano-2-phenyl-1H-indol-5-yl)-pyrazole-4-carboxylic acid] | 7.62 |
| N#Cc1cn(C2CC2)c2ccc(-n3cc(C(=O)O)cn3)cc12 [Example 3, 1-[3-cyano-1-cyclopropyl-indol-5-yl]pyrazole-4-carboxylic acid] | 8.22 |
| N#Cc1cn(C2CCCC2)c2ccc(-n3cc(C(=O)O)cn3)cc12 [Example 9, 1-(3-cyano-1-cyclopentyl-indol-5-yl)-pyrazole-4-carboxylic acid] | 8.34 |
| N#Cc1cn(C2CCC2)c2ccc(-n3cc(C(=O)O)cn3)cc12 [Example 8, 1-[3-cyano-1-cyclobutyl-indol-5-yl]pyrazole-4-carboxylic acid] | 8.16 |
| N#Cc1cn(C2CCOC2)c2ccc(-c3cc(C(=O)O)ccn3)cc12 (centres unmarked) [Example 23, 2-[3-cyano-1-(tetrahydrofuran-3-yl)-indol-5-yl]isonicotinic acid] | 8.00 |
| N#Cc1cc(-n2cc(C(=O)O)cn2)cc2cc[nH]c12 [Example 31, 1-(7-cyano-1H-indol-5-yl)-pyrazole-4-carboxylic acid] | 7.40 |
| CC(C)n1cc(C#N)c2cc(-n3cc(C(=O)O)c(C(F)(F)F)n3)ccc21 [Example 15, 1-[3-cyano-1-isopropyl-indol-5-yl]-3-(trifluoromethyl)pyrazole-4-carboxylic acid] | 4.53 |
| COCCn1cc(C#N)c2cc(-n3cc(C(=O)O)cn3)ccc21 [Example 6, 1-[3-cyano-1-(2-methoxyethyl)indol-5-yl]pyrazole-4-carboxylic acid] | 8.42 |
| COCCn1cc(C#N)c2cc(-c3cc(C(=O)O)ccn3)ccc21 [Example 25, 2-[3-cyano-1-(2-methoxyethyl)-indol-5-yl]isonicotinic acid] | 8.07 |
| CC(C)c1cc2cc(-n3cc(C(=O)O)cn3)cc(C#N)c2[nH]1 [Example 29, 1-(7-cyano-2-isopropyl-1H-indol-5-yl)-pyrazole-4-carboxylic acid] | 8.30 |
| Cc1nn(-c2ccc3c(c2)c(C#N)cn3C(C)C)cc1C(=O)O [Example 12, 1-[3-cyano-1-isopropyl-indol-5-yl]-3-methyl-pyrazole-4-carboxylic acid] | 7.94 |
| CCC(C)n1cc(C#N)c2cc(-n3cc(C(=O)O)cn3)ccc21 (centres unmarked) [Example 7, 1-(3-cyano-1-sec-butyl-indol-5-yl)-pyrazole-4-carboxylic acid] | 8.17 |
| CC(C)n1cc([N+](=O)[O-])c2cc(-n3cc(C(=O)O)cn3)ccc21 [Example 17, 1-(1-isopropyl-3-nitro-indol-5-yl)pyrazole-4-carboxylic acid] | 8.34 |
| CC(C)n1cc(C#N)c2cc(-n3cc(C(=O)O)cn3)ccc21 [Example 1, 1-(3-cyano-1-isopropyl-indol-5-yl)pyrazole-4-carboxylic acid] | 8.47 |

| SMILES | pIC50 |
| --- | --- |
| CC(C)n1cc(C#N)c2cc(-c3cc(C(=O)O)ccn3)ccc21 [Example 21, 2-(3-cyano-1-isopropyl-indol-5-yl)isonicotinic acid] | 8.21 |
| CC(C)n1cc(C#N)c2cc(-n3cnc(C(=O)O)c3)ccc21 [Example 19, 1-(3-cyano-1-isopropyl-indol-5-yl)imidazole-4-carboxylic acid] | 7.62 |
| COCc1cc2cc(-n3cc(C(=O)O)cn3)cc(C#N)c2[nH]1 [Example 30, 1-(7-cyano-2-methoxymethyl-1H-indol-5-yl)-pyrazole-4-carboxylic acid] | 7.77 |
| N#Cc1cn(CC2CC2)c2ccc(-n3cc(C(=O)O)c(C(F)(F)F)n3)cc12 [Example 16, 1-[3-cyano-1-(cyclopropylmethyl)indol-5-yl]-3-(trifluoromethyl)pyrazole-4-carboxylic acid] | 4.67 |
| N#Cc1cn(CC2CC2)c2ccc(-n3cc(C(=O)O)cn3)cc12 [Example 2, 1-[3-cyano-1-(cyclopropylmethyl)indol-5-yl]pyrazole-4-carboxylic acid] | 8.55 |
| N#Cc1cn(C2CCOC2)c2ccc(-n3cc(C(=O)O)cn3)cc12 (centres unmarked) [Example 11, 1-[3-cyano-1-(tetrahydrofuran-3-yl)-indol-5-yl]-pyrazole-4-carboxylic acid] | 8.27 |
| CC(C)n1cc(C#N)c2cc(-c3ccc(C(=O)O)s3)ccc21 [Example 20, 5-(3-cyano-1-isopropyl-indol-5-yl)-thiophene-2-carboxylic acid] | 8.33 |
| CC(C)n1cc([N+](=O)[O-])c2cc(-c3cc(C(=O)O)ccn3)ccc21 [Example 27, 2-(1-isopropyl-3-nitro-indol-5-yl) isonicotinic acid] | 7.96 |
| Cc1cc(C(=O)O)cc(-c2ccc3c(c2)c(C#N)cn3C(C)C)n1 [Example 26, 2-(3-cyano-1-isopropyl-indol-5-yl)-6-methylisonicotinic acid] | 5.40 |
| CC(C)(C)Cn1cc(C#N)c2cc(-n3cc(C(=O)O)cn3)ccc21 [Example 5, 1-[3-cyano-1-(2,2-dimethylpropyl)indol-5-yl]pyrazole-4-carboxylic acid] | 8.30 |
| N#Cc1cn(CC2CC2)c2ccc(-c3cc(C(=O)O)ccn3)cc12 [Example 22, 2-[3-cyano-1-(cyclopropylmethyl)-indol-5-yl]isonicotinic acid] | 8.68 |
| COCCn1cc(C#N)c2cc(-n3cc(C(=O)O)c(C)n3)ccc21 [Example 14, 1-[3-cyano-1-(2-methoxyethyl)indol-5-yl]-3-methyl-pyrazole-4-carboxylic acid] | 7.92 |
| CC(CF)n1cc(C#N)c2cc(-n3cc(C(=O)O)cn3)ccc21 (centres unmarked) [Example 10, 1-[3-cyano-1-(1-fluoropropan-2-yl)-indol-5-yl]-pyrazole-4-carboxylic acid] | 8.28 |
| CC(C)Cn1cc(C#N)c2cc(-n3cc(C(=O)O)cn3)ccc21 [Example 4, 1-(3-cyano-1-isobutyl-indol-5-yl)pyrazole-4-carboxylic acid] | 8.35 |
| Cc1nn(-c2ccc3c(c2)c(C#N)cn3CC2CC2)cc1C(=O)O [Example 13, 1-[3-cyano-1-(cyclopropylmethyl)indol-5-yl]-3-methyl-pyrazole-4-carboxylic acid] | 8.32 |
